Test: Comment Code material properties: vapor pressure, ClogP, probability of ingredient color instability, odor detection threshold, melamine formaldehyde PMC headspace response ratio and leakage, liquid dish neat product liquid-air partition coefficient
Format: physicochemical
[1] = Table 1 materials, each letter of the code is one property class (vapor pressure, ClogP, color instability, odor detection threshold, PMC headspace ratio, PMC leakage, liquid dish liquid-air partition coefficient)
[2] = cell strings several class symbols together, each letter is one property class of L1

SMILES	Comment Code [1]	Comment Code [2]
CC(=O)OC1CC2CCC1(C)C2(C)C (stereo not drawn) [Material 604]	ADEFHIJKL	
C=C1C2CCC(C)(OCC)C1CCC2(C)C (stereo not drawn) [Material 606]	BDEFHJK	
CCOCOC1CCCCCCCCCCC1 [Material 607]	DEFHJK	
CC(C)=CCCC(C)=C1CC=C(C)CC1 [Material 608]	DEFHJK	
CC1=CC(=O)CC(C)C12CCC(=C(C)C)C2 (stereo not drawn) [Material 610]	DHJK	
C=C(C)C1CCC(C)(OC(C)=O)CC1 (stereo not drawn) [Material 611]	BDHJK	
C=C(C)C1CCC(C)(O)CC1 (stereo not drawn) [Material 612]	BCGIJK	
C=CC(=C)CCC=C(C)CCC=C(C)C=O [Material 613]	DHJK	
C=C1C=CC(C(C)CCC=C(C)C)CC1 (stereo not drawn) [Material 614]	DEFHJK	
C=C(C)C1CCC2(C)CCCC(=C)C2C1 (stereo not drawn) [Material 615]	BDEFGJK	
C=C1C2CCC(C2)C1(C)CCC=C(C)CO (stereo not drawn) [Material 616]	DEFHJK	DEFHJK
CC1(C)C2CCC3(CO3)C1C2 (stereo not drawn) [Material 617]		ACEFGIJKL
C=C1C=CC(C(C)C)CC1 (stereo not drawn) [Material 619]		ADEFGIJKL
CC1CCC2=C1CC1CCC2(C)C1(C)C (stereo not drawn) [Material 621]	BDEFGJKL	BDEFGJKL
CC1=CC2C(=C(C)CCCC2(C)C)CC1 (stereo not drawn) [Material 625]	DEFHJKL	
CC(C)=C1CCC(C)C2=C(C1)C(C)CC2 (stereo not drawn) [Material 626]	DEFHJKL	
COC(Cc1ccccc1)OC [Material 627]	DHJK	DHJK
C=CC(=C)CCC=C(C)CCC=C(C)C [Material 628]	DEFHJK	
C=C1CCC2C3C(C(C)C)CCC2(C)C13 (stereo not drawn) [Material 631]	BDEFHJKL	BDEFHJKL
C=C1CCC23CC1C(C)(C)C2CCC3C (stereo not drawn) [Material 632]	BDEFGJKL	BDEFGJKL
C=C1CCC=C(C)CCC2C1CC2(C)C (stereo not drawn) [Material 633]	DEFHJKL	
CC(=O)C=CC12OC1(C)CCCC2(C)C (stereo not drawn) [Material 636]	BDEFHIJK	
COc1c2ccoc2cc2oc(=O)ccc12 [Material 638]	CGJ	
CC(C)(O)CCc1ccccc1 [Material 639]	CEFGJK	
CC(=O)CCc1ccccc1 [Material 640]		ACEFGIK
O=C(OCc1ccccc1)c1ccccc1O [Material 641]		DFGJ

SMILES	Comment Code [1]	Comment Code [2]
CCCCCCCCCCCC(=O)OCc1ccccc1 [Material 644]	DEFHJ	
CC(C)CC(=O)OCc1ccccc1 [Material 645]		BDEFHJK
CC(C)C(=O)OCc1ccccc1 [Material 647]		BCHJK
CC(C)(O)Cc1ccccc1 [Material 649]	BCEFGIK	
O=C(/C=C/c1ccccc1)OCc1ccccc1 [Material 650]	DHJ	
OCc1ccccc1 [Material 652]		ACEFGIKL
O=C(OCc1ccccc1)c1ccccc1 [Material 653]	DHJ	
CC(C)CCc1ccc2c(c1)OCC(=O)CO2 [Material 658]	DHJ	
CC(C)C1OCCC2(CC3CCC2(C)C3(C)C)O1 (stereo not drawn) [Material 659]	DEFHJK	BDEFHJK
CC(C)=CCCC1=CCC(C#N)CC1 (stereo not drawn) [Material 660]	DEFHJK	
COC(=O)c1ccccc1N=CCC(C)CCCC(C)(C)O (stereo not drawn) [Material 661]	DEFHJ	
CC(OC=O)C1CCCC(C)(C)C1 (stereo not drawn) [Material 662]		ADEFHIJKL
COc1ccc(COC(C)=O)cc1 [Material 664]		BCEFGK
COc1ccc(COC=O)cc1 [Material 665]		BCEFGK
C=CC/C=C/CCC(=O)OC [Material 668]	ACEFHKL	
CCCCCOC(=O)C=Cc1ccccc1 [Material 671]	DEFHJK	
CCCCCOC(=O)c1ccccc1 [Material 672]		DEFHJK
C[C@@H]1CC[C@H]2C(C)(C)[C@H]3C[C@@]12CC1OC(C)(C)OC13C (stereo partly drawn) [Material 674]	DEFHJK	DEFHJK
CC1(O)CCC2=C(CCCC2(C)C)C1 (stereo not drawn) [Material 675]	DEFHJK	
CC1(O)CCC2=C(CCCC2(C)C)C1 (stereo not drawn) [Material 676]	DEFHJK	
CCC(O)COC1CCCCC1C(C)(C)C (stereo not drawn) [Material 677]	DEFHJK	
CC1(C)CCC[C@@]2(C)[C@H]1CC[C@]13CO[C@](C)(CC[C@@H]12)O3 [Material 678]	DEFHJ	DEFHJ
CC1C(C)(C)C2CCC3CC(C)(C)OC3C2C1(C)C (stereo not drawn) [Material 679]	ADEFHJK	DEFHJK
CC1C(C)(C)C2CCC3CC(C)(C)OC3C2C1(C)C (stereo not drawn) [Material 680]	ADEFHJK	ADEFHJK
CC(C)[C@@]12CC(=O)[C@H](C)[C@@H]1C2 [Material 683]	ADEFGIJKL	

Further lines, results first:

Comment Code [1]	Comment Code [2]	SMILES
DHJK	DHJK	CC(C)=C1CCC2=CC(=O)CC(C)C2(C)C1 (stereo not drawn) [Material 684]
BDEFHJK		CCC(=O)OC(C)(C)C1CC=C(C)CC1 (stereo not drawn) [Material 686]
	BDHJK	CC(=O)OC(C)(C)C1CC=C(C)CC1 (stereo not drawn) [Material 687]
DHJK		C=CC(C)=CCC=C(C)CCC=C(C)C=O [Material 691]
BDEFHJK		C=C(C)C1CCC2(C)CCC=C(C)C2C1 (stereo not drawn) [Material 692]
ADEFHJKL		CC(C)=CCCC1(C)C2CC3C(C2)C31C (stereo not drawn) [Material 693]
DEFHJK	DEFHJK	CC(=CCCC1(C)C2CC3C(C2)C31C)CO (stereo not drawn) [Material 694]
BDHJK		C=CCCC(=O)C1=CCCC(C)(C)C1 [Material 697]
DEFHJKL		CC1=CC2C(CC1)C(C)=CCC2C(C)C (stereo not drawn) [Material 698]
	BDEFHIK	CC(O)CCC1CCCCC1 (stereo not drawn) [Material 699]
BDHJK		CCC(=O)C=CC1C(C)=CCCC1(C)C (stereo not drawn) [Material 700]
	ACHIK	CC(C=O)=Cc1ccccc1 [Material 701]
ADEFGIJKL		C=C(C)C1CC=C(C)CC1 (stereo not drawn) [Material 702]
	BDHIJK	CC(=O)C(C)=CC1C(C)=CCCC1(C)C (stereo not drawn) [Material 703]
BDHJK		CC(=O)C=CC1C(C)=CCC(C)C1(C)C (stereo not drawn) [Material 704]
DEFHJK		CC1=CCCC(C)=CCC(C)(C)C=CC1 [Material 706]
BDEFHJK		C=C1CCCC(C)(C)C2C=C(C)CCC12 (stereo not drawn) [Material 707]
BDEFHJKL	BDEFHJKL	CC1=C2C(CC1)C(C)CCC1C2C1(C)C (stereo not drawn) [Material 708]
DEFHJKL		C=C(C)C1CCC(C)C2=C(C1)C(C)CC2 (stereo not drawn) [Material 709]
DEFHJK		C=CC(C)=CCC=C(C)CCC=C(C)C [Material 710]
ADEFGIJKL		C=C1CC2CCC1C2(C)C (stereo not drawn) [Material 711]
DEFHJK	DEFHJK	CC1=CCCC2(C)CCC(C(C)(C)O)CC12 (stereo not drawn) [Material 712]
DEFHJK		CC(C)=CCCC(C)c1ccc(C)cc1 (stereo not drawn) [Material 713]
ADEFHJKL	ADEFHJKL	CC1=CCC23C(C)CCC(C(C)C)C2C13 (stereo not drawn) [Material 714]
DEFHJK		CC1=CC2C(C(C)C)CCC(C)(O)C2CC1 (stereo not drawn) [Material 716]
DEFHJKL		CC1=CC2C(CC1)C(C)=CCC2C(C)C (stereo not drawn) [Material 717]

Comment Code [1]	Comment Code [2]	SMILES
DFHJK		CC(C)=CCCC(C)(O)C1CC=C(C)CC1 (stereo not drawn) [Material 718]
DEFHJK		CC(C)=CCC=C(C)C1CC=C(C)CC1 (stereo not drawn) [Material 719]
BDEFHJKL		CC(C)=CCCC1(C)C2CC=C(C)C1C2 (stereo not drawn) [Material 720]
DEFHJ		CCCCCC(=Cc1ccccc1)CO [Material 721]
DEFHJ		CCCCCC(=Cc1ccccc1)COC(C)=O [Material 722]
DEFHJ		CCCCCC(=Cc1ccccc1)C(OCC)OCC [Material 723]
DEFHJKL		CC1=CC2C(CC1)C(C)=CCC2C(C)C (stereo not drawn) [Material 725]
BDEFHJK	BDEFHJK	CC1=CCCC2(C)CCC3CC12OC3(C)C (stereo not drawn) [Material 726]
DFHJK		CC(C)=CCCC1=CCC(C)(C=O)CC1 (stereo not drawn) [Material 727]
CEFHK		CCCC(O)Cc1ccccc1 (stereo not drawn) [Material 730]
CEFHJK		CCC(C)(O)CCc1ccccc1 (stereo not drawn) [Material 731]
BCGI		COc1ccc(C=O)c(OC)c1OC [Material 733]
BCGI		COc1cc(OC)c(C=O)c(OC)c1 [Material 736]
ACHKL		CCCCC=CC=CC=O [Material 738]
	ACEFGIJKL	COC1=C(C)OC(C)C1=O (stereo not drawn) [Material 740]
BDFGJK		CC(C)CCCC(C)CCCC(C)C=O (stereo not drawn) [Material 741]
ACHJK		Cc1ccc(CC(C)C=O)cc1 (stereo not drawn) [Material 742]
	BCGK	C=CCOC(=O)COc1ccccc1 [Material 743]
	ACEFHK	C=CCOCCc1ccccc1 [Material 744]
BDEFHJK		C=CCOC(=O)CCC1CCCCC1 [Material 746]
BCEFGJK		C=CCOC(=O)COCCC(C)C [Material 748]
BDEFHJKL	BDEFHJKL	C=C1CCC2C(C3C(C)CCC13)C2(C)C (stereo not drawn) [Material 750]
DEFHJ		COC(=O)c1ccccc1N=CC1CC(C)=CC(C)C1 (stereo not drawn) [Material 754]
	CEFHJK	CCC(=O)N(CC)c1cccc(C)c1 [Material 755]
BDFHJK		CC(C)=CCCC(C)CCCC(C)C=O (stereo not drawn) [Material 757]
	ACEFGIKL	CC(=O)C(C)O (stereo not drawn) [Material 760]

Reference: patent US20160089464A1, “MALODOR REDUCTION COMPOSITIONS” (The Procter & Gamble Company, priority 2014, published 2016)
